The record followed here is ChEMBL document CHEMBL1201862, “PubChem BioAssay data set” (2004).

The target of test [1] is Fructose-bisphosphate aldolase (Mycobacterium tuberculosis, UniProt P9WQA3). As to the kind of experiment: Fluorescence-based biochemical high throughput dose response assay for inhibitors of the fructose-bisphosphate aldolase (FBA) of M. tuberculosis. It is filed as functional.
Test [2] has as its target T1, Beta-2 adrenergic receptor (Homo sapiens, UniProt P07550). As to the kind of experiment: Dose response for HTS for Beta-2AR agonists via FAP method from Powderset1. It is filed as functional.
Test [3] deals with T1, Beta-2 adrenergic receptor. In words: beta2AR agonists driving receptor internalization, dose response, cell-based, FAP fluorogen, flow cytometry, cherry pick 1 (AID 588763). It is filed as functional. (In general: Flow cytometry measures light scatter and fluorescence of single cells or particles in a stream.)
Test [4] deals with T2, Probable nicotinate-nucleotide adenylyltransferase (Staphylococcus aureus (strain N315), UniProt P65502). The format is functional, Staphylococcus aureus subsp. aureus N315. As to conditions: read-out: IC50_Mean.
Test [5] concerns the target Photoreceptor-specific nuclear receptor (Homo sapiens, UniProt Q9Y5X4). The format is functional, cell-based.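 Note: CHO-S cells with Gal4-NCOR and VP16-NR2E3 two-hybrid luciferase reporter.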
The target of test [6] is T2, Probable nicotinate-nucleotide adenylyltransferase. The format is functional, Staphylococcus aureus subsp. aureus N315.
Test [7] concerns the target SUMO-activating enzyme (Homo sapiens, UniProt Q9UBT2). As to the kind of experiment: SUMOylation inhibitor hit validation, confirmation, SUMOylation inhibitor project, biochemical, AlphaScreen (AID 2018). The format is functional.
Test [8] has as its target Mu-type opioid receptor (Homo sapiens, UniProt P35372). The format is functional, cell-based.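 Note: U2OS cells with beta-arrestin recruitment to OPRM1 by beta-gal complementation.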
For test [9], the target named is 5-hydroxytryptamine receptor 2A (Mus musculus, UniProt P35363). The format is functional, cell-based.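 Note: CHO-K1 cells with tagged receptor and beta-arrestin; agonist potency measured as compound-induced activation of the receptor.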
A short description of test [10]: ARNT/TACC3 interaction disruptors, potency, confirmation, biochemical, AlphaScreen, cherry-picked samples (AID 651703).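 Note: His-tagged ARNT PAS-B domain paired with GST-TACC3 E629A dimer coactivator fragment; potency of inhibitors that break up the complex and lower AlphaScreen signal.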 It is filed as functional, Homo sapiens. On the technique in general: Alpha assays give light when donor and acceptor beads are brought close together.
The nature of test [11]: AlphaScreen signal interference compounds, dose response, artefact control for ARNT-TACC3 interaction inhibitor project, biochemical, luminescence, cherry-pick (AID 651705).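 Note: AlphaScreen bead proximity signal that flags compounds interfering with the detection technology; potency reflects signal decrease which marks the compound as an assay artifact.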 The format is functional.
Test [12] can be described thus: HEp-2 cell cytotoxicity, dose response, cytotoxicity control for RSV inhibitor project, HTS (AID 2410). The format is functional. The note with it: human respiratory syncytial virus.
The subject of test [13] is Vero. In words: cells. It is filed as functional. As to conditions: Chlorocebus sabaeus.
Test [14] can be described thus: Counterscreen for […] of the human trace amine associated receptor 1 (TAAR1): Fluorescence-based cell-based high throughput dose response assay to identify nonselective Ga16 agonists. The format is functional.
A short description of test [15]: Counterscreen for antagonists of the human trace amine associated receptor 1 (hTAAR1): Fluorescence-based cell-based high throughput dose response assay to identify nonselective Ga16 antagonists. The format is functional. A general note: A counterscreen serves to expose hits that act by an unwanted route or on another target.
Test [16] deals with Long-chain-fatty-acid--AMP ligase FadD28 (Mycobacterium tuberculosis, UniProt P9WQ59). In words: Fluorescence polarization aasay to screen for inhibitors that compete for the binding of FadD28 to a bisubstrate Measured in Biochemical System Using Plate Reader - 2147-01_Inhibitor_Dose_CherryPick_Activity. The format is functional, Mycobacterium tuberculosis H37Rv.
Test [17] concerns the target Albumin (Bos taurus, UniProt P02769). In words: Counterscreen for inhibitors of T-cell receptor (TCR)-CD3 interaction: Fluorescence-based biochemical high throughput dose response assay to identify inhibitors of T-cell receptor (TCR)-CD3 interaction using a TAMRA-labeled BSA probe. The format is functional.
Test [18] can be described thus: cytotoxicity toward NIH3T3 fibroblasts, dose response, counter-screen, cell-based, ATP luminescence, mouse fibroblasts (AID 2010).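 Note: cells exposed to compound for about 90 hours before reading.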 It is filed as functional.
The nature of test [19]: inhibitors of intracellular T. cruzi replication, confirmation, NIH3T3 host cells, beta-gal luminescence (AID 2044).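 Note: intracellular parasites grown in NIH/3T3 mouse fibroblasts as host cells; luminescent beta-galactosidase reporter signal from transgenic T. cruzi replicating inside host cells; inhibitors lower the luminescence signal.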 It is filed as functional, cell-based.
Test [20] addresses T3, Zinc finger protein mex-5 (Caenorhabditis elegans, UniProt Q9XUB2).
T3 sequence (Q9XUB2 whole entry): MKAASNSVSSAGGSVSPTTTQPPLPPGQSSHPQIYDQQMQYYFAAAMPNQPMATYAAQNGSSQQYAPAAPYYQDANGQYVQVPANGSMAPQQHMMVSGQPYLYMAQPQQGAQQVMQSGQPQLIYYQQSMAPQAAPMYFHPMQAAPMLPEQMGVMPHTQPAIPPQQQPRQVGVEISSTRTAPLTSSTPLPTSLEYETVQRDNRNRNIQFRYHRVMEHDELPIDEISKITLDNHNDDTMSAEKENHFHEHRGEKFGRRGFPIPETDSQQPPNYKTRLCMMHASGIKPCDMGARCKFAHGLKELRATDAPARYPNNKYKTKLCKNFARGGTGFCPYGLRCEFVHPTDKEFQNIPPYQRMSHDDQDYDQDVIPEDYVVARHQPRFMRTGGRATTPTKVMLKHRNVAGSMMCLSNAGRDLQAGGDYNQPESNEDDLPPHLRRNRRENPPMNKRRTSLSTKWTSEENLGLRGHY
In words: MEX-5/TCR-2 RNA interaction inhibitors, dose response, biochemical, C. elegans, fluorescence polarization (AID 1960).

Test [21] has as its target T4, RNA-binding protein pos-1 (Caenorhabditis elegans, UniProt G5EF15).
T4 sequence (G5EF15 whole entry): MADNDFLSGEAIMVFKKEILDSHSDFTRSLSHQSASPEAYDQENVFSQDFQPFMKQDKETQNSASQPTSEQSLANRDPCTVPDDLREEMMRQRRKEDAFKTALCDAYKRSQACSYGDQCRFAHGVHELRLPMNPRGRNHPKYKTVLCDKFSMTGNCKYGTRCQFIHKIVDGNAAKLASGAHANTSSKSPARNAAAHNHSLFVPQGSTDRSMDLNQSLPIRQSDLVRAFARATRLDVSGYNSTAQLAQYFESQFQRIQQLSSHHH
As to the kind of experiment: inhibitors of POS-1/mex-3 RNA binding, dose response, biochemical, fluorescence polarization (AID 1964).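 Note: purified POS-1 fused to maltose binding protein made in E. coli; potency of compounds blocking POS-1 binding to fluorescent RNA.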

For test [22], the system named is Streptococcus sp. 'group A'. In words: growth inhibition of control SK(-) GAS strain, dose response, counter-screen for streptokinase expression inhibitor project, luminescence, kanamycin, BacTiterGlo, confirmation (AID 1900). It is filed as functional, organism-based.
A short description of test [23]: cells. It is filed as functional.
A short description of test [24]: microbe, parasite or virus in culture. As to conditions: Mycobacterium tuberculosis. It is filed as functional.
Test [25] relates to Streptococcus. As to the kind of experiment: Group A Streptococcus viability loss, dose response, counter-screen for streptokinase expression inhibitor project, luminescence, BacTiterGlo (AID 1915).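 Note: potency for reduction of bacterial viability or growth.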 The format is functional, organism-based.
For test [26], the target named is T5, Streptokinase A (Streptococcus pyogenes serotype M1, UniProt P10520).
T5 sequence (P10520 whole entry): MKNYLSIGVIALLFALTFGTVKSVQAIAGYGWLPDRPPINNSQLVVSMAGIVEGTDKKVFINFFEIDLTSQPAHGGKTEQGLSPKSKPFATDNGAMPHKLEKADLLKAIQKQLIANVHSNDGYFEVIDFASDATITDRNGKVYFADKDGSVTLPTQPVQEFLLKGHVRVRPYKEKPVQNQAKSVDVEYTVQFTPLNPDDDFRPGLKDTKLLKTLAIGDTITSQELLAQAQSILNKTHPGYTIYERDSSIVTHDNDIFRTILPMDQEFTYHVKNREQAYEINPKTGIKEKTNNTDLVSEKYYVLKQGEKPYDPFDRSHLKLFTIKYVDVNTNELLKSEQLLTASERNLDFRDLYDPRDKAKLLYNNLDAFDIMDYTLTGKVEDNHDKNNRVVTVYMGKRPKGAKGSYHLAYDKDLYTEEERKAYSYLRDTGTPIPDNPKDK
As to the kind of experiment: S. pyogenes streptokinase expression inhibitors, potency, dose response, plasminogen activation absorbance, OD405 (AID 1914).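 Note: secreted streptokinase activity via plasminogen activation per viability signal from cell pellet.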 It is filed as functional, Streptococcus pyogenes M1 GAS.

A short description of test [27]: StAR promoter reporter inhibition counter-screen, dose response, counter-screen for LRH-1 inverse agonist project, cell-based, luminescence, luciferase reporter (AID 651969). The format is functional.
Test [28] deals with Steroidogenic factor 1 (Homo sapiens, UniProt Q13285). In words: Counterscreen for inverse agonists of the liver receptor homolog-1 (LRH-1; NR5A2): Luminescence-based cell-based high throughput dose response assay to identify inverse agonists of the Steroidogenic Factor 1 Nuclear Receptor (SF1; NR5A1). It is filed as functional.
Test [29] addresses Nuclear receptor subfamily 5 group A member 2 (Homo sapiens, UniProt O00482). It is filed as functional, cell-based.
Test [30] is described as follows: cells. The format is functional, cell-based.
Test [31] can be described thus: cells. It is filed as functional, cell-based. This is another data set of the same source.

Calls of active or inactive are those of the source.
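Throughout, for IC50 Mean: confirmatory dose-response retesting of NadD inhibitor hits first found in an ultra-high-throughput screen.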

T2 sequence (P65502 whole entry, the tested form may be a part): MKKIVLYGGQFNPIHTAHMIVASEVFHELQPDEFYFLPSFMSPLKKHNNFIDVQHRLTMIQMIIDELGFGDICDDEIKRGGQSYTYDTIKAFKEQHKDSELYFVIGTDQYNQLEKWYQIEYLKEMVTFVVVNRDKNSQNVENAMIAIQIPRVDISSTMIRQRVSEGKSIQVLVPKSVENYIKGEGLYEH
Sequence of Nuclear receptor subfamily 5 group A member 2 (O00482 whole entry): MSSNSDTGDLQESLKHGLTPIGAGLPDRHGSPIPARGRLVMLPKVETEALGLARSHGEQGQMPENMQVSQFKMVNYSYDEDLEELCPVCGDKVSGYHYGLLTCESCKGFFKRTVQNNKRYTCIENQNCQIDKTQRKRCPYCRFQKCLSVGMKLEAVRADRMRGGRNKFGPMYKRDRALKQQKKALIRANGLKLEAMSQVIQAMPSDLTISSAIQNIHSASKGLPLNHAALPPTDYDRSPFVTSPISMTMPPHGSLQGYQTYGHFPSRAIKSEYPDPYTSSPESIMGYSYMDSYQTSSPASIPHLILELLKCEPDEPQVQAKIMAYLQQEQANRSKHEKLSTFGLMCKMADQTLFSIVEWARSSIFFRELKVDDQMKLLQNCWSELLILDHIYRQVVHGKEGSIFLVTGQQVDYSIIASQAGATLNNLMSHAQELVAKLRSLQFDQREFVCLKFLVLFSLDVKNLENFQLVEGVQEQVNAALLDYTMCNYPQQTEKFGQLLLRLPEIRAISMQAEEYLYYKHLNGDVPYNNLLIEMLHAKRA
Sequence of Fructose-bisphosphate aldolase (P9WQA3 whole entry): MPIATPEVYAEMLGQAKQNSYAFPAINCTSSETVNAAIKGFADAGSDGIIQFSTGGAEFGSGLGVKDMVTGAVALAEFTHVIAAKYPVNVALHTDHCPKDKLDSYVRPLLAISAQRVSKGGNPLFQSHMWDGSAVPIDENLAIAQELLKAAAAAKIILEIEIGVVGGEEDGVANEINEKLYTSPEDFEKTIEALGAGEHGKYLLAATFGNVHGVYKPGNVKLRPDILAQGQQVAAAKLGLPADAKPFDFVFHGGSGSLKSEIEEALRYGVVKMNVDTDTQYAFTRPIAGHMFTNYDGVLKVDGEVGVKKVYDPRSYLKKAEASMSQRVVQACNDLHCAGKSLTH
Sequence of 5-hydroxytryptamine receptor 2A (P35363 whole entry, the tested form may be a part): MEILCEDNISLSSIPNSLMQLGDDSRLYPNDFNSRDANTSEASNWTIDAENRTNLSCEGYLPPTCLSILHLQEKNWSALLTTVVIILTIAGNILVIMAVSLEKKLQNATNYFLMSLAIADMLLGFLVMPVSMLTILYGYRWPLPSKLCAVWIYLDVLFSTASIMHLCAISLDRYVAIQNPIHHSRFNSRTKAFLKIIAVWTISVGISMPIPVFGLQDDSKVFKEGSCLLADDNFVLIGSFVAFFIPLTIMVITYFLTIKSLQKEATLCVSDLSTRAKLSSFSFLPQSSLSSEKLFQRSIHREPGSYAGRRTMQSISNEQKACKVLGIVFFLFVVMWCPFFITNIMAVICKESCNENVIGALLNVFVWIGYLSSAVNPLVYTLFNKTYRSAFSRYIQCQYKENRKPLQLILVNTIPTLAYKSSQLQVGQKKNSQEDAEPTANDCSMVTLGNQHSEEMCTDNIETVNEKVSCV
T1 sequence (P07550 whole entry): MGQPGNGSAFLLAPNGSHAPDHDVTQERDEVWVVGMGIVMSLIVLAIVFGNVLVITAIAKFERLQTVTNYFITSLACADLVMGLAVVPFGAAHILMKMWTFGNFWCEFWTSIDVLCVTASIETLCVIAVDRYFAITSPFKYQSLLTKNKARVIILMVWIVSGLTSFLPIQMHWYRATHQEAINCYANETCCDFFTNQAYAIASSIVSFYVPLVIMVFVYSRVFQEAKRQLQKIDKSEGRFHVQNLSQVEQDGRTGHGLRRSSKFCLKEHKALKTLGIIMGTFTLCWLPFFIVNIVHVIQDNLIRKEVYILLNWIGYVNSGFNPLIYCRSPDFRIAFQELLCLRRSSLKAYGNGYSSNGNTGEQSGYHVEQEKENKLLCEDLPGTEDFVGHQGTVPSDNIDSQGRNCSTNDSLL
Sequence of Steroidogenic factor 1 (Q13285 whole entry): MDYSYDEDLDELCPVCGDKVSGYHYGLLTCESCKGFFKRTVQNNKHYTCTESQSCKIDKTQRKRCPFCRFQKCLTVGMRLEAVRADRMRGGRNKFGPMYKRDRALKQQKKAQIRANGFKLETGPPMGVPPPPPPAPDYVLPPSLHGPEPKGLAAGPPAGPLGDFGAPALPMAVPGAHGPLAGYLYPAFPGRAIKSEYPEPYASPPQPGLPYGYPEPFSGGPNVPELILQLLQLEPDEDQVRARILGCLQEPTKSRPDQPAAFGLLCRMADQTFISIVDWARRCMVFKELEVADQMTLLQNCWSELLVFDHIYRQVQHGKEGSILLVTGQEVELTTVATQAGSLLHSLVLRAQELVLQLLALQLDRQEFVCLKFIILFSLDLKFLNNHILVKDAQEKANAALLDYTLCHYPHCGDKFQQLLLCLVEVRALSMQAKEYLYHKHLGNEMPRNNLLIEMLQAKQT
Sequence of Mu-type opioid receptor (P35372 whole entry): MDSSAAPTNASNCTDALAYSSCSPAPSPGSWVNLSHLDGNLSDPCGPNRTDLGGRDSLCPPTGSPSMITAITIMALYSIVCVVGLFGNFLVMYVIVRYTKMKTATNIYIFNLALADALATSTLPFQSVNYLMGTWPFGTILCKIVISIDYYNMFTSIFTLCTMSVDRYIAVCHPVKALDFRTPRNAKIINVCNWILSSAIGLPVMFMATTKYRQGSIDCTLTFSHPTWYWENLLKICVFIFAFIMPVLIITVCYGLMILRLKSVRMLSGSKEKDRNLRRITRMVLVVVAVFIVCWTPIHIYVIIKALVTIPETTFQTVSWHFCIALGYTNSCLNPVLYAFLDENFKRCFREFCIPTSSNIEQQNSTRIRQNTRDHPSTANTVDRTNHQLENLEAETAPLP
Sequence of SUMO-activating enzyme (Q9UBE0 whole entry): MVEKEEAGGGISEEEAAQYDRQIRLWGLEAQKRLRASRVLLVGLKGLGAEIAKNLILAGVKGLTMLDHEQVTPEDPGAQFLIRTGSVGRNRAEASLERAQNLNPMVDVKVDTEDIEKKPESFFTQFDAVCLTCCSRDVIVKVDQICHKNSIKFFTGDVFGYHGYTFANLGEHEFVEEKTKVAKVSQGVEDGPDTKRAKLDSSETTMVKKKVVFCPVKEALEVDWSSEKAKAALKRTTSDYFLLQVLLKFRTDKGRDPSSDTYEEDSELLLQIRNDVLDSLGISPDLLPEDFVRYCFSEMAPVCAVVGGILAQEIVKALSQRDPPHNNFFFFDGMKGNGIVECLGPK
Sequence of SUMO-activating enzyme (Q9UBT2 whole entry): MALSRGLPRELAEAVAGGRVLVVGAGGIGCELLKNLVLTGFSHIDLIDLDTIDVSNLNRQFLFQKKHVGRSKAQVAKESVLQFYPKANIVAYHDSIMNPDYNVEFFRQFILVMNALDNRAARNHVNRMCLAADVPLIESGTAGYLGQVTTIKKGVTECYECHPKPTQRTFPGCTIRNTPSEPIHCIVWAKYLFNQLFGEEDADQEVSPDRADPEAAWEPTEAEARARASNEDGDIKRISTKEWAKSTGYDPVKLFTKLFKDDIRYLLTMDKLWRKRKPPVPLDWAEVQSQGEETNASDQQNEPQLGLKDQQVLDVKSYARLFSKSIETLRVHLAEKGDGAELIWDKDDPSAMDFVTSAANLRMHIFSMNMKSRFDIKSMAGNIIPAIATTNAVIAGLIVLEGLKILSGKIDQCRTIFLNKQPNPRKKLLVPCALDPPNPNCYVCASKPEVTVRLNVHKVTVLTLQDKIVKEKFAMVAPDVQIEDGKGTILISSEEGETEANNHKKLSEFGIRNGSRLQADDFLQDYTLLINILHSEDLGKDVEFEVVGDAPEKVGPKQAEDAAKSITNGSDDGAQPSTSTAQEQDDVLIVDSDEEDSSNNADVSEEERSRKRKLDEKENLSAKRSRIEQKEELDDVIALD
Sequence of Albumin (P02769 whole entry): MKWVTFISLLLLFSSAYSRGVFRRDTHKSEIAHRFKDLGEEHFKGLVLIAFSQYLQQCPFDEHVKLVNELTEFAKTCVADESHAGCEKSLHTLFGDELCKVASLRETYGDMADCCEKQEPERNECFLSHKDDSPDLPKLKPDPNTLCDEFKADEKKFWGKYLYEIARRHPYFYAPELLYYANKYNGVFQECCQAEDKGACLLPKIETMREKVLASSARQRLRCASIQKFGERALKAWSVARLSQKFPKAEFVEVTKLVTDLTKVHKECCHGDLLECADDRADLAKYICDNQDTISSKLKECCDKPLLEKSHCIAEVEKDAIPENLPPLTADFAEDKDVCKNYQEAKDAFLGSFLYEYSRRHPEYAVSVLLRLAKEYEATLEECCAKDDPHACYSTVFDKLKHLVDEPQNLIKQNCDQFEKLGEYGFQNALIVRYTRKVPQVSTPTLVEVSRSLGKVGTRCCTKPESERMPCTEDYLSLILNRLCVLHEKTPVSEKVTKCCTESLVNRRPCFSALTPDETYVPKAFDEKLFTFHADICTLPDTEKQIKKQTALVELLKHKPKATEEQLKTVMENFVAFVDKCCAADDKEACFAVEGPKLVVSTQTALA
Sequence of Photoreceptor-specific nuclear receptor (Q9Y5X4 whole entry, the tested form may be a part): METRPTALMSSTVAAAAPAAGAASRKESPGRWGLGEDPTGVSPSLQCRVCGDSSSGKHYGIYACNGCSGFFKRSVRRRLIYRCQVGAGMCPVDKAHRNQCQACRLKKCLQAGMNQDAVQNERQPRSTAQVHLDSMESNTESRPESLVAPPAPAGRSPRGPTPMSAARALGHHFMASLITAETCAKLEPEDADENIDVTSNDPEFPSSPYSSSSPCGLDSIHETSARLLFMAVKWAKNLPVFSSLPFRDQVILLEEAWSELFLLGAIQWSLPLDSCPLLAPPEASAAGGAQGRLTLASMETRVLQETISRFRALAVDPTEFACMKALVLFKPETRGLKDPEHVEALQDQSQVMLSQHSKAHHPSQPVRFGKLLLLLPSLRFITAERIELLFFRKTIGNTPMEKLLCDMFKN

With `O=C(NC1CCCCC1)c1ccc2[nH]c(=O)c(=O)[nH]c2c1`, in test [1], the IC50 was 2.36 µM (active).

As for `COc1ccc(CN2CCC(Oc3ccc(C(=O)N4CCCC4)cc3)CC2)c(F)c1`, the EC50 (commonly the concentration that produces a half-maximal response) in test [2] was 5.42 µM (active); in test [3], 4.66 µM (active).

`O=C(Nc1nnc(-c2cccs2)o1)c1cc(-c2ccccc2)nc2ccccc12`: the IC50 in test [4] was 27.6 µM (active); in test [5], 3.67 µM (active); in [6], 6.58 µM (active).

In the case of `O=C(O)c1ccc(/C=N/NC(=O)c2ccc(CN3c4cccc5cccc(c45)S3(=O)=O)cc2)cc1`, the IC50 in test [7] was 10.9 µM (active); in [4], 27.2 µM (active); in test [6], 5.94 µM (active).

For `C1=CC2CC1CC2CN1CCN(c2ccccc2)CC1` (stereo not given), the EC50 was 92.5 µM (inactive) in [8] and 76.1 µM (inactive) in test [9].

For `COc1ccccc1NC(=O)CSc1ccc2nnc(-c3cccnc3)n2n1`, the figures for the AC50 in test [10] and in test [11] were 118 µM (active) and 127 µM (active), respectively.

Take `Cc1cc(=O)oc2cc(OCCc3ccccc3)ccc12`: in test [1], the IC50 was 1.35 µM (active). In addition, the CC50 in [12] is 35.1 µM (active); in test [13], > 25 µM (active).

Take `CCOCCOc1cccc(C(=O)NC(c2ccccc2)c2ccccc2)c1`: the EC50 in test [14] was 10.3 µM (inactive). Also, in test [15], the IC50 was 10 µM (inactive).

On to `Cc1nc2ccccc2n1-c1ccccc1`, for which the AC50 (in general, the midpoint of the concentration-response curve, whichever way the signal moves) in test [16] is 29.5 µM (active).

Turning to `O=C(N/N=C/c1cc(Cl)cc([N+](=O)[O-])c1O)c1ccc2c(c1)OCO2`, in test [17], the IC50 is > 94.1 µM (inactive). Also, the EC50 was 5.65 µM (active) in test [18], 1.1 µM (active) in test [19], 241 µM (active) in test [20] and 127 µM (active) in test [21].

Take `Cc1c(Cl)cccc1-c1ccc(CNCc2ccccn2)o1`: the concentration for a half-maximal effect (EC50) in test [22] was 13 µM (active); in test [25], 70.2 µM (active); in [26] it was > 150 µM (not active). Also, the AC50 in test [11] was 87.3 µM (active). For the same compound, the IC50 in [23] is 550 nM (active). Moreover, in [24], the CC50 was > 40 µM (active).

For the compound `COc1cc(NC(=O)Cn2ccsc2=N)c(C)cc1[N+](=O)[O-]`, the IC50 is 35.9 µM (inactive) in test [27], 25.3 µM (inactive) in [28] and 35.9 µM (inactive) in test [29].

Turning to `CCCN[C@H]1CCc2nc(N)sc2C1`, the results for the EC50 in test [8] and in test [9] were 92.5 µM (inactive) and 0.00651 µM (active), respectively.

Turning to `O=C(COc1ccc2c3c(c(=O)oc2c1)CCCC3)NCCN1CCOCC1`, the IC50 in test [27] was 35.8 µM (inactive); in test [28], 17 µM (inactive); in [29], 35.8 µM (inactive).

For the compound `O=C(O)C1CC=C(Cl)CC1C(=O)NCC1OCCc2ccccc21` (stereo not given), the IC50 in [30] is > 29.9 µM (inactive). In addition, the EC50 in test [31] is > 29.9 µM (inactive).
